Measurements from patent US7781428B2 (Pfizer Inc., priority 2006, dated 2010).
Where a name gives a salt, the structure may show the parent alone.

target: T1, mineralocorticoid receptor (MR) (Homo sapiens, UniProt P08235); test: Cell-based Gal4 response element-controlled luciferase reporter assay (MR antagonism); details: Huh7 human liver cells transfected with Gal4 DBD-MR LBD fusion and luciferase reporter; block of agonist-induced activation; overnight incubation
T1 construct: expressed in transfected cells; host or cells: Huh7 (human liver cells)
T1 sequence (P08235 726-964 limits assumed): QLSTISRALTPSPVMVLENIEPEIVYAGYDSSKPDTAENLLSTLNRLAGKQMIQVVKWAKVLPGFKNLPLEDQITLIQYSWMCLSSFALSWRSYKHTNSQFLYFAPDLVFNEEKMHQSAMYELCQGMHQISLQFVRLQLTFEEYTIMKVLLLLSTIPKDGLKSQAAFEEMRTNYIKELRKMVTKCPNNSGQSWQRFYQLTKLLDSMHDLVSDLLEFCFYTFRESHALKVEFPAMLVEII
Text: Method 1: Cell-based Gal4 Response Element-controlled Luciferase Reporter Assay
An in vitro assay can be used to evaluate mineralocorticoid receptor (MR) antagonism by a test compound. […] An agonist of the receptor can bind to and activate the receptor LBD, which activate the expression of the Gal4 response element containing luciferase reporter gene. Antagonists can compete for binding to the receptor LBDs and decrease the transcription activity of the reporter gene. Measurement of luciferase activity allows quantitative determinations of the reporter transcription in the presence of either agonists or agonists and antagonists in combination. β-galactosidase activity, which is unaffected by ligand, is used to normalize the transfection efficiency in the cell population.
Huh7 cells were plated in RPMI1640+10% fetal bovine serum (Invitrogen Corporation, San Diego, Calif.), at 10,000 cells per well in 96-well tissue culture dishes for approximately 24 hours. Cells were then transfected using FuGENE™ 6 Transfection Reagent according to manufacturers' instructions (Roche Molecular Biochemicals, Indianapolis, Ind.). Approximately 20 hours after transfection, media were removed. Cells were washed once with PBS and treated (n=6/group) with agonist for each receptor (all chemicals from Sigma, St. Louis, Mo.), and with compounds. Agonist concentrations represent 70-80% of full activation of each receptor.
Compounds were dissolved in DMSO at 10 mM and diluted to final concentrations in phenol red-free media that contained 10% charcoal- and dextran-stripped serum (Life Technologies, Gathersburg, Md.). Following overnight incubation (18-20 hours) with compounds, the medium was removed and replaced with 100 μL per well of PBS and 100 μL of Steady-Glo™ lysis buffer with luciferase substrate (Promega Corporation, Madison, Wis.). After a 30-minute incubation to completely lyse the cells, 100 μL of the lysate was transferred to a black, Dynatech Microfluor assay plates (Dynex Corporation, Chantilly, Va.) to measure luciferase activity. The plate was sealed with TopSeal self-adhesive film, dark-adapted for 5 minutes, then counted in a TopCount Plate Reader (Packard Instrument Company, Meriden, Conn.) in single photon counting mode. The remaining lysate was used for determination of β-galactosidase activity. In a clear 96-well assay plate, 100 μL of cell lysate was added to 100 μL β-galactosidase assay buffer per well. The assay buffer consisted of 60 mM Na2HPO4, 40 mM NaH2PO4, 10 mM KCl, 1 mM MgSO4, 50 mM β-mercaptoethanol, and 2.5 mg/mL ONPG, the latter two reagents were added just prior to assay (all chemicals from Sigma). The reaction was allowed to proceed until a distinct yellow color developed. Reactions were stopped by the addition of 100 μL per well 1 M Na2CO3 and plates were read at 420 nm in Victor-2 (Perkin Elmer Life Sciences, Boston, Mass.). Values (relative luciferase activity) for each sample were expressed as a ratio of luciferase activity to OD420β-galactosidase activity measured in arbitrary units for each well. […] “b” is the slope, “c” is the IC50 or EC50. “x” is the concentration of the compound and “y” the activity at that concentration.

Row | Compound | IC50 [nM]
1 | N#Cc1ccc(N2N=C3c4ccc(O)cc4CCC3C2c2ccc(F)cc2)cc1C(F)(F)F (racemic) [Example 83] | 77
2 | N#Cc1ccc(N2N=C3c4ccc(O)cc4CC[C@H]3[C@H]2c2ccc(F)cc2)cc1Cl [Example 88, 2-chloro-4-((3S,3aS)-3-(4-fluorophenyl)-7-hydroxy-3,3a,4,5-tetrahydrobenzo[g]indazol-2-yl)benzonitrile] | > 1000
3 | N#Cc1ccc(N2N=C3c4ccc(C(=O)O)cc4OCC3C2C2CCCC2)cc1C(F)(F)F (racemic) [Example 68, (±)-(3RS,3aSR)-2-[4-cyano-3-(trifluoromethyl)phenyl]-3-cyclopentyl-2,3,3a,4-tetrahydrochromeno[4,3-c]pyrazole-7-carboxylic acid] | 52
4 | N#Cc1ccc(N2N=C3c4ccc(C(=O)NCCO)cc4CC[C@@H]3[C@@H]2C2CCCC2)cc1Cl [Example 115, (3S,3aR)-2-(3-chloro-4-cyanophenyl)-3-cyclopentyl-N-(2-hydroxyethyl)-3,3a,4,5-tetrahydro-2H-benzo[g]indazole-7-carboxamide] | 3
5 | N#Cc1ccc(N2N=C3c4ccc(C(=O)O)cc4OC[C@H]3[C@H]2c2ccc(F)cc2)cc1Cl [Example 57, (3S,3aS)-2-(3-chloro-4-cyanophenyl)-3-(4-fluorophenyl)-2,3,3a,4-tetrahydrochromeno[4,3-c]pyrazole-7-carboxylic acid] | 3510
6 | CS(=O)(=O)NC(=O)c1ccc2c(c1)CC[C@H]1C2=NN(c2ccc(C#N)c(Cl)c2)[C@H]1c1ccc(F)cc1 (racemic) [Example 113, (±)-(3RS,3aRS)-2-(3-chloro-4-cyanophenyl)-3-(4-fluorophenyl)-N-(methylsulfonyl)-3,3a,4,5-tetrahydro-2H-benzo[g]indazole-7-carboxamide] | 995
7 | N#Cc1ccc(N2N=C3c4ccc(C(=O)O)cc4CC[C@H]3[C@H]2C2CCCC2)cc1 [Example 20, (3R,3aS)-2-(4-cyanophenyl)-3-cyclopentyl-3,3a,4,5-tetrahydro-2H-benzo[g]indazole-7-carboxylic acid] | 2880
8 | CCN(CC)CCN(CCN(CC)CC)C(=O)c1ccc2c(c1)CC[C@H]1C2=NN(c2ccc(C#N)c(Cl)c2)[C@H]1c1ccc(F)cc1 (racemic) [Example 107, (±)-(3RS,3aRS)-2-(3-chloro-4-cyanophenyl)-N,N-bis(2-(diethylamino)ethyl)-3-(4-fluorophenyl)-3,3a,4,5-tetrahydro-2H-benzo[g]indazole-7-carboxamide bistrifluoroacetate] | 523
9 | N#Cc1ccc(N2N=C3c4ccc(C(=O)O)cc4CC[C@@H]3[C@@H]2C2CCCC2)cc1O (racemic) [Example 33] | > 500
10 | Cc1cc(N2N=C3c4ccc(C(=O)O)cc4CC[C@@H]3[C@@H]2c2ccc(F)cc2)ccc1C#N [Example 7, (3R,3aR)-2-(4-cyano-3-methylphenyl)-3-(4-fluorophenyl)-3,3a,4,5-tetrahydro-2H-benzo[g]indazole-7-carboxylic acid] | 17.2
11 | CS(=O)(=O)CCNC(=O)c1ccc2c(c1)CC[C@H]1C2=NN(c2ccc(C#N)c(Cl)c2)[C@H]1C1CCOCC1 (racemic) [Example 100] | 21
12 | Cc1nc(N2N=C3c4ccc(C(=O)O)cc4CCC3C2C2CCCC2)ccc1C#N (racemic) [Example 24, 2-(5-cyano-6-methylpyridin-2-yl)-3-cyclopentyl-3,3a,4,5-tetrahydro-2H-benzo[g]indazole-7-carboxylic acid] | 8
13 | CC(=O)Nc1ccc2c(c1)CCC1C2=NN(c2ccc(C#N)c(Cl)c2)C1C1CCCC1 (centres unmarked) [Example 91, N-(-2-(3-chloro-4-cyanophenyl)-3-cyclopentyl-3,3a,4,5-tetrahydro-2H-benzo[g]indazol-7-yl)acetamide] | 5
14 | CS(=O)(=O)CCNC(=O)c1ccc2c(c1)CCC1C2=NN(c2ccc(C#N)c(Cl)c2)C1c1ccc(F)cc1 (racemic) [Example 97, (±)-(3RS,3aRS)-2-(3-chloro-4-cyanophenyl)-3-(4-fluorophenyl)-N-(2-(methylsulfonyl)ethyl)-3,3a,4,5-tetrahydro-2H-benzo[g]indazole-7-carboxamide] | 12
15 | N#Cc1ccc(N2N=C3c4ccc(C(=O)O)cc4CCC3C2c2ccc(F)cc2)cn1 (racemic) [Example 14, 2-(6-cyanopyridin-3-yl)-3-(4-fluorophenyl)-3,3a,4,5-tetrahydro-2H-benzo[g]indazole-7-carboxylic acid trifluoroacetate] | 929
16 | N#Cc1ccc(N2N=C3c4ccc(O)cc4CCC3C2c2ccc(F)cc2)cc1 (racemic) [Example 90, (±)-4-((3RS,3aSR)-3-(4-fluorophenyl)-7-hydroxy-3,3a,4,5-tetrahydrobenzo[g]indazol-2-yl)benzonitrile] | 1100

Continued, values first:

Row | IC50 [nM] | Compound
17 | 305 | COc1cc(N2N=C3c4ccc(C(=O)O)cc4CC[C@H]3[C@H]2C2CCCC2)ccc1C#N [Example 27, (3R,3aS)-2-(4-cyano-3-methoxyphenyl)-3-cyclopentyl-3,3a,4,5-tetrahydro-2H-benzo[g]indazole-7-carboxylic acid]
18 | 113 | N#Cc1ccc(N2N=C3c4ccc(C(=O)NCCCCCC(=O)O)cc4CC[C@@H]3[C@@H]2c2ccc(F)cc2)cc1Cl (racemic) [Example 103, (±)-6-((3RS,3aRS)-2-(3-chloro-4-cyanophenyl)-3-(4-fluorophenyl)-3,3a,4,5-tetrahydro-2H-benzo[g]indazole-7-carboxamido)hexanoic acid]
19 | > 1000 | N#Cc1ccc(N2N=C3c4ccc(C(=O)NCC(=O)NCC(=O)O)cc4CC[C@H]3[C@@H]2c2ccc(F)cc2)cc1Cl (racemic) [Example 108, (±)-2-(2-((3RS,3aSR)-2-(3-chloro-4-cyanophenyl)-3-(4-fluorophenyl)-3,3a,4,5-tetrahydro-2H-benzo[g]indazole-7-carboxamido)acetamido)acetic acid]
20 | 103 | Cc1ncc(C2C3CCc4cc(C(=O)O)ccc4C3=NN2c2ccc(C#N)c(Cl)c2)s1 (racemic) [Example 49, 2-(3-chloro-4-cyanophenyl)-3-(2-methyl-1,3-thiazol-5-yl)-3,3a,4,5-tetrahydro-2H-benzo[g]indazole-7-carboxylic acid]
21 | 130 | N#Cc1ccc(N2N=C3c4ccc(C(=O)O)cc4OCC3C2C2CCCC2)cc1C(F)(F)F (racemic) [Example 69, (±)-(3RS,3aRS)-2-[4-cyano-3-(trifluoromethyl)phenyl]-3-cyclopentyl-2,3,3a,4-tetrahydrochromeno[4,3-c]pyrazole-7-carboxylic acid]
22 | 81 | Cc1cc(N2N=C3c4ccc(C(=O)O)cc4CCC3C2c2ccc(F)cc2)ccc1C#N (racemic) [Example 6, 2-(4-cyano-3-methylphenyl)-3-(4-fluorophenyl)-3,3a,4,5-tetrahydro-2H-benzo[g]indazole-7-carboxylic acid]
23 | > 1000 | N#Cc1ccc(N2N=C3c4ccc(C(=O)O)cc4CC[C@H]3[C@H]2c2ccoc2)cc1Cl [Example 48, (3S,3aS)-2-(3-chloro-4-cyanophenyl)-3-(3-furyl)-3,3a,4,5-tetrahydro-2H-benzo[g]indazole-7-carboxylic acid]
24 | 2740 | Cc1cc(N2N=C3c4ccc(C(=O)O)cc4CC[C@H]3[C@H]2c2ccc(F)cc2)ccc1C#N [Example 8, (3S,3aS)-2-(4-cyano-3-methylphenyl)-3-(4-fluorophenyl)-3,3a,4,5-tetrahydro-2H-benzo[g]indazole-7-carboxylic acid]
25 | 39 | Cc1cc(N2N=C3c4ccc(C(=O)O)cc4OCC3C2C2CCCC2)ccc1C#N (racemic) [Example 61, 2-(4-cyano-3-methylphenyl)-3-cyclopentyl-2,3,3a,4-tetrahydrochromeno[4,3-c]pyrazole-7-carboxylic acid]
26 | 49 | Cc1cc(N2N=C3c4ccc(O)cc4CCC3C2c2ccc(F)cc2)ccc1C#N (centres unmarked) [Example 80]
